Experimental data reported in patent US20260151517A1, “SOMATOSTATIN RECEPTOR-TARGETING RADIOPHARMACEUTICALS AND USES THEREOF” (Nuclidium AG, priority 2024, published 2026).
Where a SMILES comes first, the peptide text is derived from it. Bridges are numbered along the chain shown (N, C = ends). [ ]: non-standard residue; d: D form. The star is where a group is joined. X2 = O=C(O)CN1CCN(CC(=O)O)CCN([C@H](CCC(=O)*)C(=O)O)CC1; dPhe(4-NHCONH2) = NC(=O)Nc1ccc(C[C@@H](N)C(=O)O)cc1; Phe(4-Cl) = N[C@@H](Cc1ccc(Cl)cc1)C(=O)O

Assays:
[1] = Extended single-dose toxicity study (GLP, microdose approach); format: in vivo, mice; details: both sexes, C57BL/6NCrl, mouse, in vivo, iv, 5 mg/kg; single i.v. dose, 14 days observation, mice; read-out: no adverse effect level (NOAEL)
Procedure: (§1) The precursor-induced toxicity was evaluated using the non-radiolabeled precursor in line with the IAEA and EMA guidelines. The non-clinical safety study was performed using the microdose approach I described in the ICH guideline M3 (R2). The study was designed as an extended single-dose toxicity study in one rodent species and performed under GLP conditions. NODAGA-LM3 toxicity was evaluated after intravenous administration on day 1 of the study, followed by an observation period of 14 days. 60 (30 males and 30 females) C57BL/6NCrl mice were divided into one dose group and one control group. The test item was administered once by i.v, administration into the tail vein.
(§2) In each of the two groups, 20 male and 20 female main animals were euthanized the day after dosing, whereas 10 male and 10 female recovery animals were kept for an observation period of 14 days after dosing to detect possible delayed occurrence or persistence of, or recovery from toxic effects. Three extra mice per sex were included as replacement animals. The dose group animals were injected with a 5 mg/kg vector in a 5 mL/kg dose volume. The control group underwent injection of the vehicle alone (5 mL/kg). The animals were examined twice daily for toxicity and morbidity/mortality signs. All animals were sacrificed for necropsy. Blood was taken before necropsy for analysis of hematologic and clinical biochemistry parameters. Organs were collected, weighted, and preserved in neutral buffered formaldehyde (4%) for histopathological examination. […] No effects on body weight gain or food consumption were noted. […] Therefore, these differences were considered to be unrelated to the test substance. […] All these changes were transitory and considered non-adverse.

[2] = tested on: C57BL/6NCrl mice; assay: as above; format: in vivo
Procedure: as §1, §2

[3] = PET/CT imaging after [^61Cu]CuCl2 injection; format: in vivo
[4] = Specificity (blocking) study with excess DOTA-LM3; details: athymic nude Foxn1^nu, mouse, total radioactivity
Procedure: (§4) Unless otherwise specified, the in vivo studies were performed on athymic nude Foxn1^nu 4-6 weeks-old mice. Animals were injected in the shoulder with HEK-SST2 cells (10^7 cells/200 μL) suspended in PBS. The in vivo experiments were performed when tumors reached a volume between 100-500 mm. At the intervention, all mice were between 7 and 11 weeks old.
(§5) The specificity study was performed parallel to pharmacokinetics studies. For this reason, NODAGA-LM3 was radiolabeled with ^64Cu.
(§6) The specificity of [^64Cu]Cu-NODAGA-LM3 for SSTR2-expressing tissues was evaluated in HEK-SST2 xenograft mice through a blocking study. The mice were administered with 0.15 MBq of [^64Cu]Cu-NODAGA-LM3 co-injected with a 2000-fold excess of DOTA-LM3 as a blocking agent. The mice were sacrificed 4 hours post-injection, and the organs were collected. weighed, and counted in a gamma counter.

[5] = tested on: HEK-SST2 xenograft mice; assay: Specificity (blocking) study with excess DOTA-LM3; details: inferred from low, stable liver accumulation
Procedure: as §4, §5, §6

[6] = target: T1, SSTR1 (Homo sapiens, UniProt P30872); assay: Binding affinity (IC50) to SSTR subtypes, displacement of [Leu,D-Trp,^125I-Tyr]-somatostatin-28; details: membrane pellet sections of SSTR1-expressing cells
T1 construct: expressed in transfected cells
T1 sequence (P30872 whole entry): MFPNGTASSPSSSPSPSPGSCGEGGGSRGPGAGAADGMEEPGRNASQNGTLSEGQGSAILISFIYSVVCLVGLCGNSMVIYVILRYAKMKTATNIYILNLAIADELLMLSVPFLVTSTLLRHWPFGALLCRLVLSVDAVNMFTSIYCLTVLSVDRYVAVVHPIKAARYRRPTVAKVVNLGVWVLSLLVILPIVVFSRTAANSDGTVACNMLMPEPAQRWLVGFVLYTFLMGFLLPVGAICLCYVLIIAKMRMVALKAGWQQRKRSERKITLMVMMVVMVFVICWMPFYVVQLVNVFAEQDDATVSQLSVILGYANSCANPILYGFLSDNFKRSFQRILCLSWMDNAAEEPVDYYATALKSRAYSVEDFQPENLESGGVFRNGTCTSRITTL
Procedure: (§3) The binding affinity of Cu-NODAGA-LM3 was determined by measuring the IC50 by labelling the precursor with natural copper (^natCu). The IC50 value is the concentration in which 50% of the specific binding of a reference radioligand to the tested molecule is inhibited. The universal somatostatin radioligand [Leu,D-Trp,^125I-Tyr]-somatostatin-28 was used as a reference radioligand. The assay was performed on […] cryostat sections of membrane pellets prepared from SSTR1-, SSTR2-, SSTR3-, SSTR4-, and SSTR5-expressing cells incubated with increasing concentrations of ^natCu-NODAGA-LM3. IC50 values for each SSTR subtype were calculated by mathematically extracting the concentration of the tested molecule, causing 50% displacing of the specific bounded [Leu,D-Trp,^125I-Tyr]-somatostatin-28.

[7] = target: T2, SSTR2 (Homo sapiens, UniProt P30874); assay: as above; details: membrane pellet sections of SSTR2-expressing cells
T2 construct: expressed in transfected cells
T2 sequence (P30874 whole entry): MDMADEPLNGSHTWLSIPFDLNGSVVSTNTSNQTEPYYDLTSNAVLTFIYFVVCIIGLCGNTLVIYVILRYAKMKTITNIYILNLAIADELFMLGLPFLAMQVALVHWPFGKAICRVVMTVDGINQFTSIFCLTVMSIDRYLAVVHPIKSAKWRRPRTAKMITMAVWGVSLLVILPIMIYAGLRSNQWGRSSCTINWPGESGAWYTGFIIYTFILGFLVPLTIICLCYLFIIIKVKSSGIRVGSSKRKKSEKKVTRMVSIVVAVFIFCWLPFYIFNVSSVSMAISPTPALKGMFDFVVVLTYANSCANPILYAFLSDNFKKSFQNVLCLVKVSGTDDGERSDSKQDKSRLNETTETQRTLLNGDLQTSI
Procedure: as §3

[8] = target: T3, SSTR3 (Homo sapiens, UniProt P32745); assay: as above; details: membrane pellet sections of SSTR3-expressing cells
T3 construct: expressed in transfected cells
T3 sequence (P32745 whole entry): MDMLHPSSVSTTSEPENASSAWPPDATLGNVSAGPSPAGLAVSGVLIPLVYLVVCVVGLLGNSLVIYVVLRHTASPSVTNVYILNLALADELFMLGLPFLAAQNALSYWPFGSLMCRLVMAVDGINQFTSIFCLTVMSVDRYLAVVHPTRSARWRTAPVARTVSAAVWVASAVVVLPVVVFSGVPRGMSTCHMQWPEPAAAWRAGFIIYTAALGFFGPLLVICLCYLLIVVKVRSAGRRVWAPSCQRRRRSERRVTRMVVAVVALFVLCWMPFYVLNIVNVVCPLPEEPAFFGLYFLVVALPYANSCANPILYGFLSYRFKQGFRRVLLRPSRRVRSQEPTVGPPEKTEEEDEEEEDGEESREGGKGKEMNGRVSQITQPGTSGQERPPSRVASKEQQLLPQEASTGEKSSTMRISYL
Procedure: as §3

[9] = target: T4, SSTR4 (Homo sapiens, UniProt P31391); assay: as above; details: membrane pellet sections of SSTR4-expressing cells
T4 construct: expressed in transfected cells
T4 sequence (P31391 whole entry): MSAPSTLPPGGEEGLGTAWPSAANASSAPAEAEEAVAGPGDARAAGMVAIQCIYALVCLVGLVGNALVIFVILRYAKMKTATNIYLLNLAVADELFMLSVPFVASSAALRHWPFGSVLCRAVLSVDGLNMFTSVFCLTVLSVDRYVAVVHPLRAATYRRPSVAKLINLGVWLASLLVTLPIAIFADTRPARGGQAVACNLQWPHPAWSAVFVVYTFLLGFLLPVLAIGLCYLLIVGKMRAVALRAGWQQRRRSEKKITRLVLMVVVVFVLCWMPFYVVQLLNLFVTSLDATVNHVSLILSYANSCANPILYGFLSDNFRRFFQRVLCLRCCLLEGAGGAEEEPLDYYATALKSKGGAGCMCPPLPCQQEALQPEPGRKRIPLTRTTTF
Procedure: as §3

[10] = target: T5, SSTR5 (Homo sapiens, UniProt P35346); assay: as above; details: membrane pellet sections of SSTR5-expressing cells
T5 construct: expressed in transfected cells
T5 sequence (P35346 whole entry): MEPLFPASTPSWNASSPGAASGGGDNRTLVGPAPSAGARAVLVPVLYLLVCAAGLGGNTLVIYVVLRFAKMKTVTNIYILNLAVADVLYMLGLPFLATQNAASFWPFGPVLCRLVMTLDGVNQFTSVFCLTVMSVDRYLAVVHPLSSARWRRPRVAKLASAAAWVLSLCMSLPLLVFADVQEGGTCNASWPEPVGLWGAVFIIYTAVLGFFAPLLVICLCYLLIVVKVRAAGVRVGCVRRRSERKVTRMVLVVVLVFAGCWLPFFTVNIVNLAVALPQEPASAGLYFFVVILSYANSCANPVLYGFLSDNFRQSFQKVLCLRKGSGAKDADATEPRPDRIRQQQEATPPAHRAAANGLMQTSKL
Procedure: as §3

SMILES: C[C@@H](O)[C@@H]1NC(=O)[C@H](CCCCN)NC(=O)[C@@H](Cc2ccc(NC(N)=O)cc2)NC(=O)[C@H](Cc2ccc(O)cc2)NC(=O)[C@H](NC(=O)[C@H](Cc2ccc(Cl)cc2)NC(=O)CC[C@H](C(=O)O)N2CCN(CC(=O)O)CCN(CC(=O)O)CC2)CSSC[C@@H](C(=O)N[C@H](Cc2ccc(O)cc2)C(N)=O)NC1=O [NODAGA-LM3, 2,2′-(7-((R)-4-(((S)-1-(((4R,7S,10S,13R,16S,19S)-4-(((R)-1-amino-3-(4-hydroxyphenyl)-1-oxopropan-2yl)carbamoyl)-10-(4-aminobutyl)-16-(4-hydroxybenzyl)-7-((R)-1-hydroxyethyl)-6,9,12,15,18-pentaoxo-13-(4-ureidobenzyl)-1,2-dithia-5,8,11,14,17-pentaazacycloicosan-19-yl)amino)-3-(4-chlorophenyl)-1-oxopropan-2-yl)amino)-1-carboxy-4-oxobutyl)-1,4,7-triazonane-1,4-diyl)diacetic acid] (X2-[Phe(4-Cl)][dC]Y[dPhe(4-NHCONH2)]KTC[dY]-NH2; disulfide 2-7)
- NOAEL at 14 days [1]: 5 mg/kg
- delayed toxicity ([2]; 5 mg/kg i.v., 14 days observation): no indication of delayed toxicity
- adverse systemic or local effects ([2]; 5 mg/kg i.v., mice): did not cause any adverse systemic or local effects
- body weight gain or food consumption ([2]; 5 mg/kg i.v., mice): No effects
- clinical tolerability ([2]; 5 mg/kg i.v., mice): clinically well-tolerated
- mortality ([2]; 5 mg/kg i.v., mice): no treatment-related mortality
- macroscopic or microscopic findings ([2]; 5 mg/kg i.v., necropsy and histopathology): No macroscopic or microscopic findings that could be attributed to treatment
- hematology, white cell count ([2]; 5 mg/kg i.v., transitory, considered non-adverse): increased white cell count in male mice
- safety ratio vs intended maximum patient dose 0.8 μg/kg ([2]; considering the dose conversion factor): higher than 1,000 times

SMILES: [Cl][61Cu][Cl] [[^61Cu]CuCl2]
- excretion route of free isotopes [3]: excreted mainly through the liver

SMILES: C[C@@H](O)[C@@H]1NC(=O)[C@H](CCCCN)NC(=O)[C@@H](Cc2ccc(NC(N)=O)cc2)NC(=O)[C@H](Cc2ccc(O)cc2)NC(=O)[C@H](NC(=O)[C@H](Cc2ccc(Cl)cc2)NC(=O)CC[C@H](C(=O)O)N2CCN(CC(=O)O)CCN(CC(=O)O)CC2)CSSC[C@@H](C(=O)N[C@H](Cc2ccc(O)cc2)C(N)=O)NC1=O [[^64Cu]Cu-NODAGA-LM3, metal not drawn] (X2-[Phe(4-Cl)][dC]Y[dPhe(4-NHCONH2)]KTC[dY]-NH2; disulfide 2-7)
- tissue uptake at 4 h ([4]; bone, 0.15 MBq, Uptake Bone, 4 hours post-injection, non-blocking): 0.39 ± 0.07 %ID/g
- tissue uptake at 4 h ([4]; bone, with DOTA-LM3, 2000-fold excess, co-injected as blocking agent, Uptake Bone, 4 hours blocking, co-injected 2000-fold excess of DOTA-LM3): 0.01 ± 0.01 %ID/g
- tissue uptake at 4 h ([4]; pancreas, 0.15 MBq, Uptake Pancreas, 4 hours post-injection, non-blocking): 0.55 ± 0.1 %ID/g
- tissue uptake at 4 h ([4]; pancreas, with DOTA-LM3, 2000-fold excess, co-injected as blocking agent, Uptake Pancreas, 4 hours blocking, co-injected 2000-fold excess of DOTA-LM3): 0.12 ± 0.03 %ID/g
- tissue uptake at 4 h ([4]; stomach, 0.15 MBq, Uptake Stomach, 4 hours post-injection, non-blocking): 1.31 ± 0.55 %ID/g
- tissue uptake at 4 h ([4]; stomach, with DOTA-LM3, 2000-fold excess, co-injected as blocking agent, Uptake Stomach, 4 hours blocking, co-injected 2000-fold excess of DOTA-LM3): 0.43 ± 0.14 %ID/g
- tissue uptake at 4 h ([4]; tumor, 0.15 MBq, Uptake Tumor, 4 hours post-injection, non-blocking): 37.9 ± 3.43 %ID/g
- tissue uptake at 4 h ([4]; tumor, with DOTA-LM3, 2000-fold excess, co-injected as blocking agent, Uptake Tumor, 4 hours blocking, co-injected 2000-fold excess of DOTA-LM3): 0.52 ± 0.18 %ID/g
- in vivo stability [5]: generally stable in vivo, with limited transchelation phenomena

SMILES: C[C@@H](O)[C@@H]1NC(=O)[C@H](CCCCN)NC(=O)[C@@H](Cc2ccc(NC(N)=O)cc2)NC(=O)[C@H](Cc2ccc(O)cc2)NC(=O)[C@H](NC(=O)[C@H](Cc2ccc(Cl)cc2)NC(=O)CC[C@H](C(=O)O)N2CCN(CC(=O)O)CCN(CC(=O)O)CC2)CSSC[C@@H](C(=O)N[C@H](Cc2ccc(O)cc2)C(N)=O)NC1=O [^natCu-NODAGA-LM3, metal not drawn] (X2-[Phe(4-Cl)][dC]Y[dPhe(4-NHCONH2)]KTC[dY]-NH2; disulfide 2-7)
- IC50 [6]: ≥ 1000 nM
- IC50 [7]: 6.7 ± 1.5 nM
- IC50 [8]: ≥ 1000 nM
- IC50 [9]: ≥ 1000 nM
- IC50 [10]: ≥ 1000 nM
